The source of these data is patent US8143428B2, “Heteroaryl sulfones and sulfonamides and therapeutic uses thereof” (Temple University-Of The Commonwealth System of Higher …, priority 2004, dated 2012).

Assay type in all cases: cell-based
The subject of assay [1] is colo-rectal (DLD-1) cell line. Put plainly: Growth of human tumor cells in culture, DLD-1 (Trypan blue exclusion). Conditions: DLD-1 cells, 96 h continuous treatment, viable cells by Trypan blue exclusion. As to the method:
(§1) The effect of compounds according to Formula I on the growth of human tumor cells in culture was evaluated using androgen receptor negative prostate (DU145), colo-rectal (DLD-1), non-small cell lung carcinoma (H157), estrogen receptor negative breast (BT20) and chronic myeloid leukemia (K562) cell lines. All cell cultures were maintained at 37° C. in a humidified atmosphere of 5% CO2.
(§2) Cells were treated with compounds according to Formula I at five different concentrations (1-100 μM range) for each compound. The dose response of each cell line was established by determining the number of viable cells after 96 h of continuous treatment against each of the different test concentrations of each compound. The determination of viable cells was done by the by the Trypan blue exclusion method. Activity for each compound at each concentration is reported as a percentage of cells that remain viable.

For assay [2], the system named is androgen receptor negative prostate (DU145) cell line. Description: Growth of human tumor cells in culture, DU145 (Trypan blue exclusion). Conditions: 96 h continuous treatment, viable cells by Trypan blue exclusion. The protocol: as §1, §2
Assay [3] addresses T1, JNK1 (Homo sapiens, UniProt P45983).
T1 construct: JNK1 in 100 μg of cell lysate was immunoprecipitated; endogenous in cells; host or cells: BT-20 cells
Description: Activation of Jun kinase: JNK1 immunoprecipitated from treated BT-20 cells, phosphorylation of GST-c-Jun. The settings on record: 50 and 100 μM in DMSO, 12 hours at 37° C., compared to DMSO controls. The protocol:
The compounds of Examples 1, 2, 7, 8 and 9 from Table 3 were analyzed for activation of the Jun kinase signaling pathway. The selected compounds were added to BT-20 cells at concentrations of 50 and 100 μM in dimethyl sulfoxide (DMSO) and incubated for 12 hours at 37° C. The cells were harvested and lysed after 12 hours of treatment. The cell lysates were then analyzed for c-Jun kinase activity by immunoprecipitating JNK1 and assessing the ability of these immunoprecipitates to phosphorylate GST-linked c-Jun. Lysis of the cells was performed after incubation with […], using the lysis buffer [25 mM N-2-hydroxyethylpiperazine-N′-2-ethanesulfonic acid (HEPES) (pH 7.6), 0.1% Triton, 300 mM NaCl, 20 mM β-glycerophosphate, 1.5 mM MgCl2, 0.2 mM ethylenediaminetetraacetic acid (EDTA), 0.5 mM dithiothreitol (DTT), 0.2 mM Na3VO4, 100 μM phenylmethylsulfonyl fluoride (PMSF), 1 mM benzamidine, 2 μg/mL leupeptin and 4 μg/mL aprotinin]. Protein concentrations were measured using Bio-Rad protein assay reagent. JNK1 in 100 μg of cell lysate was immunoprecipitated by incubating […] of lysate protein with […] of the JNK1 polyclonal antibody (Santa Cruz Biotechnology, Inc.,) for 1 h followed by an additional incubation with […] of protein A-Sepharose (Pharmacia) for 1 h. The immune complex bound protein A-Sepharose beads were washed twice with the lysis buffer and twice with JNK buffer (20 mM HEPES, pH 7.6, 20 mM β-glycerophosphate, 10 mM MgCl2 and […] Na3VO4. The kinase reaction was carried out by resuspending the complex bound protein A-Sepharose beads in […] of JNK buffer containing […] [γ-^32P]ATP (5000 CPM/pmol) and incubating them for 20 min at 30° C. using 5 mg GST-c-Jun as substrate. The reaction was terminated by the addition of Laemmli's buffer. The samples were then boiled for 3 min. The phosphorylated GST-c-Jun was then separated on 12% SDS-PAGE. Following the separation, the gel was dried, and an autoradiogram was developed which is reproduced in FIG. 1.

Assay [4] deals with chronic myeloid leukemia (K562) cell line. Description: Growth of human tumor cells in culture, K562 (Trypan blue exclusion). The settings on record: 96 h continuous treatment, viable cells by Trypan blue exclusion. As to the method:
as §1, §2

The subject of assay [5] is non-small cell lung carcinoma (H157) cell line. Put plainly: Growth of human tumor cells in culture, H157 (Trypan blue exclusion). Conditions: viable cells by Trypan blue exclusion. The protocol:
as §1, §2

The subject of assay [6] is estrogen receptor negative breast (BT20) cell line. Description: Growth of human tumor cells in culture, BT20 (Trypan blue exclusion). The settings on record: 96 h continuous treatment, viable cells by Trypan blue exclusion. The protocol: as §1, §2
Setting [7] is: Homo sapiens, NCI-H157, 96 h continuous treatment.

T1 sequence (P45983 whole entry): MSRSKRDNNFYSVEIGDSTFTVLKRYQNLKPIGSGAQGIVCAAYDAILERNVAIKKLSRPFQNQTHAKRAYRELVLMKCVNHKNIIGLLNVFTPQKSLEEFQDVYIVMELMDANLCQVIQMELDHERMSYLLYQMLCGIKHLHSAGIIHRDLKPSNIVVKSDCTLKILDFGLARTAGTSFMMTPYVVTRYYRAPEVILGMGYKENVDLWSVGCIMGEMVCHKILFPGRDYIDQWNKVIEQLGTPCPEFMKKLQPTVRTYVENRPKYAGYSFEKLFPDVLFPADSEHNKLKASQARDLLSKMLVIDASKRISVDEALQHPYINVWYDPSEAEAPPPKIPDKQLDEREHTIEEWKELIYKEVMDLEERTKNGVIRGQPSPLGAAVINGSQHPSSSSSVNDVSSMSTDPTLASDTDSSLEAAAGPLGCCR

Broadly, the GI50 is the concentration giving 50% growth inhibition. A lower GI50 goes with more potent growth inhibition. Regarding `COc1ccc(NS(=O)(=O)c2cc3cc(Br)ccc3oc2=O)cc1` [Example 1, 6-Bromo-N-(4-methoxyphenyl)-2-oxo-2H-chromene-3-sulfonamide], the GI50 in assay [1] (Homo sapiens, DLD-1, 96 h) turned out to be 20 µM; in assay [2] (Homo sapiens, DU-145, 96 h) it was 15 µM; in assay [4] (Homo sapiens, K562, 96 h) it was 14 µM; in assay [5] (setting [7]) it was 18 µM; in assay [6] (Homo sapiens, BT-20, 96 h), 16 µM. Besides, the “c-Jun kinase activity: phosphorylation of GST-c-Jun by immunoprecipitated JNK1 (autoradiogram, FIG. 1)” value (from here on “c-Jun kinase activity: phosphorylation”) in assay [3] is reported as “hyperphosphorylated”.

For the compound `COc1ccc(NS(=O)(=O)c2cc3cc(Cl)ccc3oc2=O)cc1` [Example 2, 6-Chloro-N-(4-methoxyphenyl)-2-oxo-2H-chromene-3-sulfonamide], the concentration for 50% growth inhibition (GI50) was found to be 32 µM in assay [1] (Homo sapiens, DLD-1, 96 h); 22 µM in assay [2] (Homo sapiens, DU-145, 96 h); 23 µM in assay [4] (Homo sapiens, K562, 96 h); 28 µM in assay [5] (setting [7]); 27 µM in assay [6] (Homo sapiens, BT-20, 96 h). Further, the “c-Jun kinase activity: phosphorylation” value in assay [3] is “hyperphosphorylated”.

For `CCOc1cccc2cc(S(=O)(=O)Nc3ccc(OC)cc3)c(=O)oc12` [Example 3, 8-Ethoxy-N-(4-methoxyphenyl)-2-oxo-2H-chromene-3-sulfonamide], the GI50 was found to be 78 µM in assay [1]; 57 µM in assay [2]; 48 µM in assay [4]; 74 µM in assay [5] (96 h continuous treatment); 52 µM in assay [6].

Turning to `COc1ccc(NS(=O)(=O)c2cc3cc(Cl)ccc3oc2=O)cc1O` [Example 4, 6-Chloro-N-(3-hydroxy-4-methoxyphenyl)-2-oxo-2H-chromene-3-sulfonamide], the GI50 worked out at 82 µM in assay [1] (Homo sapiens, DLD-1, 96 h); 42 µM in assay [2] (Homo sapiens, DU-145, 96 h); 51 µM in assay [4] (Homo sapiens, K562, 96 h); 76 µM in assay [5] (setting [7]); 65 µM in assay [6] (Homo sapiens, BT-20, 96 h).

Consider `CCOc1cccc2cc(S(=O)(=O)Nc3ccc(F)c(N)c3)c(=O)oc12` [Example 5, N-(3-Amino-4-fluorophenyl)-8-ethoxy-2-oxo-2H-chromene-3-sulfonamide], for which the GI50 in assay [1] (Homo sapiens, DLD-1, 96 h) was 80 µM; in assay [2] (Homo sapiens, DU-145, 96 h), 48 µM; in assay [4] (Homo sapiens, K562, 96 h) it was 42 µM; in assay [5] (setting [7]), 72 µM; in assay [6] (Homo sapiens, BT-20, 96 h), 54 µM.

On to `COc1ccc2oc(=O)c(S(=O)(=O)Nc3ccc(F)c(N)c3)cc2c1` [Example 6, N-(3-Amino-4-fluorophenyl)-6-methoxy-2-oxo-2H-chromene-3-sulfonamide], for which the GI50 in assay [1] (Homo sapiens, DLD-1, 96 h) was determined as 92 µM; in assay [2] (Homo sapiens, DU-145, 96 h), 56 µM; in assay [4] (Homo sapiens, K562, 96 h) it was 44 µM; in assay [5] (setting [7]) it was 78 µM; in assay [6] (Homo sapiens, BT-20, 96 h), 68 µM.

For the compound `COc1ccc2oc(=O)c(S(=O)(=O)Nc3ccc(Br)cc3)cc2c1` [Example 7, N-(4-Bromophenyl)-6-methoxy-2-oxo-2H-chromene-3-sulfonamide], the GI50 in assay [1] (Homo sapiens, DLD-1, 96 h) is 38 µM; in assay [2] (Homo sapiens, DU-145, 96 h), 25 µM; in assay [4] (Homo sapiens, K562, 96 h) it was 27 µM; in assay [5] (setting [7]), 32 µM; in assay [6] (Homo sapiens, BT-20, 96 h), 18 µM. In addition, the “c-Jun kinase activity: phosphorylation” value in assay [3] was “hyperphosphorylated”.

For the compound `CCOc1cccc2cc(S(=O)(=O)Nc3ccc(OC)cc3)c(=O)oc12` [Example 8, 8-Ethoxy-N-(4-methoxyphenyl)-2-oxo-2H-chromene-3-sulfonamide], the GI50 in assay [1] (Homo sapiens, DLD-1, 96 h) amounted to 85 µM; in assay [2] (Homo sapiens, DU-145, 96 h) it was 52 µM; in assay [4] (Homo sapiens, K562, 96 h), 58 µM; in assay [5] (setting [7]) it was 74 µM; in assay [6] (Homo sapiens, BT-20, 96 h) it was 64 µM. Further, the “c-Jun kinase activity: phosphorylation” value in assay [3] is reported as “hyperphosphorylated”.

In the case of `O=c1oc2c(Cl)cccc2cc1S(=O)(=O)Nc1ccc(Br)cc1` [Example 9, N-(4-Bromophenyl)-8-chloro-2-oxo-2H-chromene-3-sulfonamide], the GI50 amounted to 18 µM in assay [1] (Homo sapiens, DLD-1, 96 h); 14 µM in assay [2] (Homo sapiens, DU-145, 96 h); 11 µM in assay [4] (Homo sapiens, K562, 96 h); 16 µM in assay [5] (setting [7]); 17 µM in assay [6] (Homo sapiens, BT-20, 96 h). Moreover, in assay [3], the “c-Jun kinase activity: phosphorylation” value was “hyperphosphorylated”.

`O=c1oc2c(Br)cccc2cc1S(=O)(=O)Nc1ccc(Br)cc1` [Example 10, N-(4-Bromophenyl)-8-bromo-2-oxo-2H-chromene-3-sulfonamide]: the GI50 turned out to be 14 µM in assay [1] (Homo sapiens, DLD-1, 96 h); 12 µM in assay [2] (Homo sapiens, DU-145, 96 h); 16 µM in assay [4] (Homo sapiens, K562, 96 h); 15 µM in assay [5] (setting [7]); 12 µM in assay [6] (Homo sapiens, BT-20, 96 h).
